Holding throughout (format): in vivo, mice
Data set [1] is described as follows: brain levels of dapansutrile after fortified feed pellets. As to conditions: oral. The procedure: Mice were treated with dapansutrile by ad libitum consumption of dapansutrile-fortified feed pellets (7.5 g/kg) for 21 days. Control mice received a matching unfortified diet without dapansutrile. Mice were monitored during the study for any changes in physiological parameters, including irregular weight gain or loss as well as changes in body temperature. On day 21, mice were sacrificed, and brains were isolated. Dapansutrile measurements in the whole brain homogenates were performed at Syneos Health (Princeton, NJ). Five mice per group were assessed. […] The ability of dapansutrile to cross BBB even when delivered orally provides a potential advance for the treatment of chronic patients like PD.

Data set [2] relates to TREM2. Put plainly: TREM2 immunoblotting in the striatum after MPTP-acute administration. As to conditions: 200 mg/kg once each day; day 4 after MPTP-acute. How it is done: In this example, we measured the levels of […] (TREM2) after dapansutrile treatment. TREM2 may be a potential target for treating PD. For TREM2, mice were sacrificed at day 4 after MPTP-acute administration. The St was excised, and proteins were extracted and quantified as described in Example 9. 30 μg of protein per sample were resolved in a Mini-PROTEAN TGX 4-20% gradient gel (Bio-Rad, Hercules, CA) in 0.1% SDS running buffer (Bio-Rad). The gel was transferred to a […] nitrocellulose membrane (GE Healthcare, Chicago, IL). Membranes were blocked with 5% blocking buffer (Bio-Rad) in TBS 0.1% (v/v) Tween solution for one hour at room temperature. Samples were incubated overnight with primary antibody for mouse TREM2 (1:1000, Cell Signaling, Danvers, MA). Peroxidase-conjugated secondary antibody (Jackson ImmunoResearch, Philadelphia, PA) and chemiluminescence were used to detect the protein concentration. Conjugated antibody against β-actin (Santa Cruz Biotechnology, Dallas, TX) was used to normalize protein concentrations. Protein bands for monomeric and oligomeric forms of each individual mice were quantified using NIH ImageJ software. Four mice per group were used.

In data set [3] the test system is TNFα. Put plainly: TNFα RNA in the brain by qPCR after MPTP. As to conditions: 200 mg/kg oral gavage; striatum piece, 24 hours after first MPTP injection. How it is done: Mice were treated dapansutrile or saline and injected with MPTP as described in Example 2.
24 hours after the first injection of MPTP, mice were sacrificed. A piece of brain, centered in the striatum, was taken from each mouse and frozen in liquid nitrogen. Samples were homogenized with Trizol lysis reagent (Thermo Fisher) following the manufacturer's protocol. 1 μg of RNA from each sample was reversely transcribed using the High-Capacity Reverse Transcription kit (Applied BioSystems).
Gene expression measures were performed through qPCR using SYBR Green master mix (Applied Biosystems) and recommended thermal cycling parameters: 1 cycle of polymerase activation for 10 min at 95° C. and 40 cycles of denaturalization for 15 sec at 95° C. plus annealing/extension for 1 min at 60° ° C. (capture). Gene levels of TNFα (a pro-inflammatory cytokine) were normalized to the relation ratio of expression of the GADPH gene following the ΔΔCT method. Primers sequences are detailed below. Final fold-change values were obtained by normalization with naïve condition.

Data set [4] concerns α-synuclein. Put plainly: α-synuclein Western blot in the ventral midbrain after MPTP-subacute administration. As to conditions: 200 mg/kg for 6 days, 24 hours after last MPTP injection. How it is done:
MPTP (Sigma-Aldrich, St. Louis, MO) can be administered at two dose regimens: acute and sub-acute. For the acute regimen, MPTP was administered intraperitoneally (i.p.) four times in one day. Administrations were performed every two hours over an eight-hour period. For the subacute regimen, mice received a single i.p. administration of MPTP per day for five consecutive days. A 20 mg/kg free-base MPTP dose was used for every dose in both models. Sterile saline was used as the vehicle. Control mice were injected with saline solution using the same administration protocol and were defined as sham. Mice were sacrificed at different days after the first injection of MPTP. We used the acute protocol in C56BL/J mice to study dopamine neurodegeneration, inflammation, and motor deficits, whereas the subacute model was used to evaluate α-synuclein aggregation in the following examples.
Since MPTP promotes α-synuclein aggregation after subacute regimen, we evaluated the effect of dapansutrile on the levels of this protein. 24 hours after the last injection of MPTP, mice were sacrificed. The VM was excised, and proteins were resolved as described in Example 9. VM was selected as the region to evaluate α-synuclein accumulation according to previous publications. […] The levels of α-synuclein were determined by Western blot. […]
In general terms: A western blot detects proteins with antibodies after separation by electrophoresis.

The test system of data set [5] is IL-17A. Put plainly: IL-17A in brain homogenates by ELISA after MPTP. As to conditions: 200 mg/kg once each day; seven days after MPTP-acute; MPTP+saline 58 pg/μg. An excerpt:
(§1) It has been reported that administration of MPTP induces the assembly of NLPR3 inflammasome in the brain. Mice were sacrificed after anesthesia by cervical dislocation at 4 and 7 days after MPTP administration. Brains were collected, and the striatum (St) and ventral midbrain (VM) areas of both hemispheres were excised and frozen in liquid nitrogen. Samples were homogenized in RIPA buffer (Thermo Fisher, Waltham, MA) supplemented with protease inhibitor (Thermo Fisher) using a TissueRuptor (Qiagen, Germantown, MD). Protein concentration was determined using a BCA Protein Assay Kit (Thermo Fisher) according to manufacturer's instructions. Samples were diluted to 2 mg/ml in the same extraction buffer.
(§2) Levels of IL-1β, IL-18, IL-6, and IL-17A from brain homogenates were measured by ELISA DuoSet kit (R&D Systems, Minneapolis, MN). ELISA kit for IL-1β detects 92-95% of the 17 kDa form and only 8-5% of the precursor form of this cytokine. 96-well plates (ThermoFisher Scientific) were coated with capture antibody. Samples were incubated for two hours at room temperature. Detection antibodies and streptavidin-HRP were added. TMB ELISA (cBioscience, San Diego, CA) was used as substrate solution. Results were measured in a microplate reader (Bio-Tek, Santa Clara, CA). Final values were normalized by the protein concentration of each sample. 4-5 mice per group were used for each cytokine.

Data set [6] concerns IL-6. Put plainly: IL-6 in brain homogenates by ELISA after MPTP. As to conditions: 200 mg/kg once each day; seven days after MPTP-acute.
Description: as §1, §2
Background: In an ELISA, binding on a coated surface is turned into a signal by an enzyme label.

Setting [7] is: fortified feed pellets, 21 days.

Consider one compound from patent publication US20240269104A1, “METHOD FOR TREATING PARKINSON'S DISEASE” (Olatec Therapeutics, Inc., priority 2021, published 2024).

With `CS(=O)(=O)CCC#N` [dapansutrile, 3-methanesulfonylpropionitrile], the concentration at 21 days in data set [1] (mouse, brain (whole brain homogenate), fortified feed pellets 7.5 g/kg ad libitum, whole brain homogenates, read-out: dapansutrile level in the brain) is 47000 ng/g. Besides, in data set [1] (setting [7]), the “brain level relative to concentration required to inhibit the NLRP3 assembly” value is given as “at least 30 times” and the “crossing of the blood-brain barrier” value was “readily crosses the BBB”. Further, in data set [2], the “levels of 35 kDa-glycosylated form of TREM2 in the striatum” value is listed as “no changes” and the “levels of nonglycosylated form of TREM2 (28 kDa) in the striatum” value is recorded as “significantly increased, reaching basal condition”. Besides, the “expression of TNFα RNA in the brain” value in data set [3] is listed as “reduces the expression of TNFα RNA in the brain”. Also, in data set [4], the “levels of monomeric form of α-synuclein (17 kDa) in the ventral midbrain” value is “significantly reduced” and the “levels of oligomeric forms of α-synuclein (150-30 kDa) in the ventral midbrain” value is “significantly reduced”. The “levels of IL-17A in the ventral midbrain (VM) after treatment” value in data set [5] worked out at 46 pg/µg. Besides, in data set [6], the “levels of IL-6 in the ventral midbrain (VM)” value was “No effects were detected” and the “reduction of levels of IL-6 in the striatum (St)” value amounted to 26%.
